Where no end group is shown, it is not given here.
Test system: Male C57BL/6 mice
Experiment: Food intake in mice after a single intravenous injection of urocortin derivatives
Format: in vivo
Procedure: The potency of several modified urocortin derivatives were determined by measuring food intake in mice. A study was performed with native human urocortin 1, 2 and 3 to select a dose and to determine whether the IV route was adequate for native peptides. Following the initial study, two additional studies were performed in which the effect of modified derivatives and native peptides were compared.
Male C57BL/6 mice (22-26g) were housed 3 per cage and fed with standard chow. The night before dosing, mice were food restricted i.e., they were given only half of the amount of food ingested during the previous night. Dosing was performed between 9 and 10 a.m. Mice received a single intravenous injection (5 ml/kg via the tail vein) of saline or urocortin derivatives diluted in saline. Food intake was measured by placing preweighed pellets in the cage and weighing the uneaten pellets at 1, 2, 4, 6, 24 and 48 hours postdose.

[1] = Study No. 2, FIG. 3, (Ucn II and III derivatives)
[2] = Study No. 2, FIG. 3, 20 nmol/kg (Ucn I derivatives)

IVLSLDVPIGLLQILLEQARAK-(ε-AEEA-MPA) AAR EQATT NARIL ARV-NH2 (IVLSLDVPIGLLQILLEQARAKAAREQATTNARILARV; Lys-AEEA-MPA, C-terminal amide) [SEQ ID No. 83, Modified peptide of human urocortin 2]
inhibition of food intake as compared to the control group (Study No. 1, FIG. 1, 85 nmol/kg, 4-6 hour time interval): 50%
duration of activity on food intake compared with the other tested compounds [1]: most prolonged activity

FTLSLDVPTNIMNLLFNIAKAKNLRAQAAANAHLMAQI-NH2 (FTLSLDVPTNIMNLLFNIAKAKNLRAQAAANAHLMAQI-NH2; listed as Homo sapiens) [Urocortin III, Human Urocortin 3 (38 Amino-acids), native peptide]
'rebound' of food intake as compared to the control [1]: increase of food intake as compared to the control
activity on food intake versus the free peptide [1]: much less active than the free peptide
period of decreased food intake [1]: decreased food intake during the first hour after injection only

DNPSLSIDLTFHLLRTLLELARTQSQRERAEQNRIIFDSV-NH2 (DNPSLSIDLTFHLLRTLLELARTQSQRERAEQNRIIFDSV-NH2; listed as Homo sapiens) [human urocortin 1, Human Urocortin 1 (40 Amino-acids), native peptide]
time up to which food intake was reduced [2]: up to 4 hours

FTLSL DVPTN IMNLL FNIAK(ε-AEEA-MPA) ARNLR AQAAA NAHLM AQI-NH2 (FTLSLDVPTNIMNLLFNIAKARNLRAQAAANAHLMAQI; Lys-AEEA-MPA, C-terminal amide) [SEQ ID No. 85, Modified peptide of human urocortin 3]
'rebound' of food intake as compared to the control [1]: increase of food intake as compared to the control

IVLSLDVPIGLLQILLEQARARAAREQATTNARILARVGHC-NH2 (IVLSLDVPIGLLQILLEQARARAAREQATTNARILARVGHC-NH2; listed as Homo sapiens) [SEQ ID No. 92]
food intake in the 1-2 h time period versus control (Study No. 1, FIG. 1, 85 nmol/kg, 1-2 h postdose): back to the control
time over which food intake was reduced/inhibited postdose (Study No. 1, FIG. 1, normal mice, 85 nmol/kg): up to 1 hour
cumulative food intake versus saline control (Study No. 1, FIG. 2, 85 nmol/kg, at 6 hours postdose): still lower than the saline control

DNPSLSIDLTFHLLRTLLELAK-(ε-AEEA-MPA)TQS QRERA EQNRI IFDSV-NH2 (DNPSLSIDLTFHLLRTLLELAKTQSQRERAEQNRIIFDSV; Lys-AEEA-MPA, C-terminal amide) [SEQ ID No. 80, Modified peptide of human urocortin 1]
'rebound' of food intake as compared to the control [2]: increase of food intake as compared to the control

Reference: US7982018B2, “Modified corticotropin releasing factor peptides and uses thereof” (Conjuchem, LLC, priority 2006, dated 2011)
